Experiments:
HeLa S3 cells = assay: Growth Inhibition Test on HeLa S3 Cells; format: cell-based; details: Homo sapiens, 1 hour exposure, then 72 hours incubation at 37° C., Neutral Red staining, read-out: IC50 (concentration which inhibits cell growth by 50%)
Description: Growth Inhibition Test on HeLa S3 Cells
HeLa S3 cells were suspended in an MEM medium containing 10% fetal calf serum and 2 mM glutamine at a concentration of 3×10^4 cells/ml, and 0.1 ml of the cell suspension was put into each well of a 96-well microtiter plate.
After culturing at 37° C. overnight in a carbon dioxide gas incubator, 0.05 ml of a test sample appropriately diluted with the medium was added to each well. The cells were further cultured for one hour in the carbon dioxide gas incubator and the culture supernatant was removed. The residue was washed once with a phosphate buffer saline [PBS(-)] and 0.1 ml of a fresh medium was added to each well, and the cells were further incubated at 37° C. for 72 hours in the carbon dioxide gas incubator. After removal of the supernatant, 0.1 ml of culture medium containing 0.02% Neutral Red was added to each well, and the cells were further incubated at 37° C. for one hour in the carbon dioxide gas incubator to stain the cells. After removal of the culture supernatant, each well was washed once with a physiological saline, and the dye was extracted with 0.001N HCl/30% methanol. Absorbance of the extract at 550 nm was measured with a microplate reader. The cell growth inhibition percentage was calculated according to the following formula from the absorbance of the extract of the cells treated with the test compound in various concentrations and that of intact cells. [formula]
From the cell growth inhibition percentage thus obtained, the concentration of the test compound which inhibits cell growth by 50% (IC50) was determined.

Sarcoma 180 solid tumor = assay: Anti-tumor Activity to Sarcoma 180 Solid Tumor; format: in vivo; details: Mus musculus, iv, 168 h; male ddY mice, s.c. Sarcoma 180, single i.v. injection 24 hours after implantation, tumor volume at 7 days; read-out: ED50 (dose showing T/C=0.5)
Description: Anti-tumor Activity to Sarcoma 180 Solid Tumor
5×10^6 Sarcoma 180 cells were abdominally implanted into a ddY mouse and the cells were collected from the ascites of the mouse 7 days after the implantation. The cells were washed once with a sterilized physiological saline solution and then suspended in a sterilized physiological saline solution to prepare a cell suspension of 5×10^7 cells/ml. 0.1 ml of the cell suspension was subcutaneously implanted into the right axiallary space of male ddY mice weighting 20±2 g.
A test compound was dissolved in a physiological saline solution or a Tween 80-containing physiological saline solution, and 0.1 to 0.2 ml of the solution was intravenously injected to five mice as one group 24 hours after the implatation of the tumor cells.
The anti-tumor activity of the test compound was determined by measuring the major diameter (a) and the minor diameter (b) of the tumor 7 days after the implantation of tumor cells, and the value of (a×b^2 /2), which corresponds to the volume of the tumor, was calculated. The intended anti-tumor activity is represented by a ratio of T/C, in which C indicates the tumor volume of mice of the control group to which no test compound was administered and T indicates the tumor volume of mice of the test group to which the test compound was administered. T/C at each dose given was plotted in a graph in which T/C is shown by an ordinary scale on the vertical axis and a dose is shown by a logarithmic scale on the horizontal axis. The relation between the dose and T/C was determined to be a straight line by the least-squares method. From the regression formula of the straight line thus obtained, the dose of showing T/C=0.5 is calculated to give ED50.

Acute Toxicity = details: mouse, in vivo, iv; ddY mice, single i.v. injection, 14 days observation, Behrens Kaerber's method
Description: A test compound was intravenously injected once to five ddY mice as one group. […] LD50 was calculated from the death rate of each group according to the Behrens Kaerber's method.

Compound	IC50 (HeLa S3 cells)	ED50 (Sarcoma 180 solid tumor)	LD50 at 336 h (Acute Toxicity)
CN1[C@H]2[C@@H]1CN1C3=C(C(=O)C(N)=CC3=O)[C@H](COC(N)=O)[C@@]21O (stereo partly shown) [Compound 4, 6-demethylmitomycin D]	> 31000 nM	33 mg/kg	> 100 mg/kg
COC1=CC(=O)C2=C(C1=O)[C@@H](COC(N)=O)[C@@]1(OC)[C@H]3N[C@H]3CN21 [Compound 1, 6-demethylmitomycin A]	210 nM	1.6 mg/kg	2.8 mg/kg
CO[C@@]12[C@H](COC(N)=O)C3=C(C(=O)C(Br)=C(N)C3=O)N1C[C@@H]1N[C@@H]12 [Compound 8, 6-bromo-6-demethylmitomycin C]	720 nM	1.6 mg/kg	3.2 mg/kg
CO[C@@]12[C@H](COC(N)=O)C3=C(C(=O)C=C(N)C3=O)N1C[C@@H]1N[C@@H]12 [Compound 3, 6-demethylmitomycin C]	2200 nM	2.6 mg/kg	9.7 mg/kg
COC1=CC(=O)C2=C(C1=O)[C@H](COC(N)=O)[C@@]1(O)[C@@H]3[C@H](CN21)N3C (stereo partly shown) [Compound 2, 6-demethylmitomycin B]	> 10000 nM	11 mg/kg	> 20 mg/kg
COC1=CC(=O)C2=C(C1=O)[C@@H](COC(N)=O)[C@@]1(OC)[C@@H]3[C@H](CN21)N3C (stereo partly shown) [Compound 5, 6-demethylmitomycin F]	130 nM	7.1 mg/kg	26 mg/kg
CO[C@@]12[C@H](COC(N)=O)C3=C(C(=O)C=C(N)C3=O)N1C[C@H]1[C@@H]2N1C (stereo partly shown) [Compound 6, 6-demethylporfiromycin]	7300 nM	8.4 mg/kg	18 mg/kg
CO[C@@]12[C@H](COC(N)=O)C3=C(C(=O)C(Cl)=C(N)C3=O)N1C[C@@H]1N[C@@H]12 [Compound 7, 6-chloro-6-demethylmitomycin C]	550 nM		

From patent US5218126A, “Halogen substituted mitomycin derivatives” (Kyowa Hakko Kogyo Co., Ltd., priority 1990, dated 1993)
